Assay [1] concerns lung epithelial cells (BEAS2B). As to the kind of experiment: IFN-γ or IL-4/IL-13 stimulated lung epithelial cells. It counts as cell-based. The conditions noted are these: 10 ng/ml IFN-γ or IL-4/IL-13 for 6 h. From the text:
It suppressed the infiltration of inflammatory cells into the airspace and lung and attenuated the expression of cytokines, chemokines, and IgE in BALF and serum.

Assay [2] can be described thus: FRAP assay (ferric reduction/anti-oxidant power). The note with it: 10 μmol compound, 5 min, 593 nm; Troxol reference. It counts as biochemical. The protocol: The antioxidant activity of PB141 was determined by ferric reduction/anti-oxidant power (FRAP) assay in which the compound is reacted with ferric tripyridyltriazine complex. Data are representative of one of two independent experiments; n=3; *** P<0.001 versus Troxol.
The antioxidant activity of PB141 or PB157 was determined by ferric reduction/anti-oxidant power (FRAP) assay in which the compounds are reacted with ferric tripyridyltriazine complex. The ferric complex was prepared at room temperature by reaction of ferric chloride (16.7 mmol) and 2,4,6-trispyridyl-s-triazine (8.33 mmol) in pH 3.6 acetate buffer (0.25 M). The FRAP reagent was used immediately after preparation. PB141 or PB157 (10 μmol) was added to the FRAP reagent (1 ml) and mixed by vortexing. The reaction was allowed to stabilize for 5 min and the absorbance was measured. The antioxidant activities of these compounds were determined by the ability to reduce the ferric complex to a […] ferrous complex, monitored at 593 nm. Troxol (10 μmol) was used as reference standard.

Assay [3] in a line: TRAP assay (quenching of ABTS+ radical cation). It counts as biochemical. The note with it: 10 μmol compound, 5 min, absorbance 734 nm; Troxol reference. The protocol:
The anti-oxidant activities of PB 141 were determined by the ability of this compound to react with pre-formed radical monocation of 2,2′-azinobis-(3-ethylbenzothiazoline)-6-sulfonic acid (ABTS^+). Data are representative of one of two independent experiments; n=3; *** P<0.001 versus Troxol.
The anti-oxidant activity of PB141 or PB157 was determined by the ability of these compounds to react with the pre-formed radical monocation of 2,2′-azinobis-(3-ethylbenzothiazoline)-6-sulfonic acid (ABTS^+). ABTS (1.8 mmol) was reacted overnight with potassium persulfate (0.63 mmol) in double distilled water, at room temperature in the dark, to generate the dark blue ABTS^+ radical cation. This radical cation has a maximum absorption at 734 nm. Immediately prior to the experiment, ABTS^+ was diluted with absolute ethanol to an absorbance of approximately 0.7 at 734 nm. PB141 or PB157 (10 μmol) was added to ABTS^+ (1 ml) and mixed by vortexing. The reaction was allowed to stabilize for 5 min and the absorbance was measured. The anti-oxidant activities of these compounds were determined by their ability to quench the color of the radical cation. Troxol (10 μmol) was used as reference standard.

From patent US9862690B2, “Treatment of pulmonary and other conditions” (University of Pittsburgh—of the Commonwealth System of …, priority 2013, dated 2018) come the findings set out here.

Regarding `CC(=O)N[C@@H](CSC(CC(=O)CC(SC[C@H](NC(C)=O)C(=O)O)c1cnccn1)c1cnccn1)C(=O)O` (some centres unmarked) [PB141], in assay [1], the Cytokine generation entry was “inhibited”, the NO production result is recorded as “inhibited” and the iNOS expression result is reported as “inhibited”. The “Antioxidant activity (reduction of ferric complex)” value in assay [2] was “highly significant and approximately equal”. The “Anti-oxidant activity (ability to quench ABTS+ radical cation)” value in assay [3] was “clearly demonstrated”.
